Results taken from ChEMBL document CHEMBL4400519, “Indazolylketones as new multitarget cannabinoid drugs” (Eur J Med Chem, 2019).
Active and inactive are the calls of the source. The rule behind the calls is not given here.

Key:
[1] = target: T1, Cannabinoid receptor (Mus musculus) (UniProt P47746+P47936); test: Agonist activity at cannabinoid receptor in ICR mouse vas deferens assessed as inhibition of electrically induced contractions at 8.1 x 10^-6 M after 10 mins in presence of CB2 antagonist AM630 relative to control; type: protein assay
[2] = target: T1, Cannabinoid receptor (Mus musculus); test: Agonist activity at cannabinoid receptor in ICR mouse vas deferens assessed as inhibition of electrically induced contractions at 8.1 x 10^-6 M after 10 mins relative to control; type: protein assay
[3] = target: T2, Cholinesterase (Homo sapiens, UniProt P06276); test: Competitive inhibition of human serum BChE using butyrylthiocholine as substrate by Lineweaver-Burk plot analysis
[4] = target: T3, Acetylcholinesterase (Homo sapiens, UniProt P22303); test: Inhibition of human erythrocyte AChE using acetylthiocholine as substrate by Ellman's assay
[5] = target: T1, Cannabinoid receptor (Mus musculus); test: Agonist activity at cannabinoid receptor in ICR mouse vas deferens assessed as inhibition of electrically induced contractions at 1.82 x 10^-5 M after 10 mins in presence of CB2 antagonist AM630 relative to control; type: protein assay
[6] = target: T1, Cannabinoid receptor (Mus musculus); test: Agonist activity at cannabinoid receptor in ICR mouse vas deferens assessed as inhibition of electrically induced contractions at 2.7 x 10^-6 M after 10 mins relative to control; type: protein assay
[7] = target: T1, Cannabinoid receptor (Mus musculus); test: Agonist activity at cannabinoid receptor in ICR mouse vas deferens assessed as inhibition of electrically induced contractions at 10^-7 M after 10 mins relative to control; type: protein assay
[8] = target: T1, Cannabinoid receptor (Mus musculus); test: Agonist activity at cannabinoid receptor in ICR mouse vas deferens assessed as inhibition of electrically induced contractions at 1.82 x 10^-5 M after 10 mins in presence of CB1 antagonist AM251 relative to control; type: protein assay
[9] = target: T1, Cannabinoid receptor (Mus musculus); test: Agonist activity at cannabinoid receptor in ICR mouse vas deferens assessed as inhibition of electrically induced contractions at 8.1 x 10^-6 M after 10 mins in presence of CB1 antagonist AM251 relative to control; type: protein assay
[10] = target: Beta-secretase 1 (Homo sapiens) (UniProt P56817); test: Inhibition of human BACE1 at 10 uM incubated for 60 mins using rhodamine-EVNLDAEFK-quencher substrate by FRET assay
[11] = target: T1, Cannabinoid receptor (Mus musculus); test: Agonist activity at cannabinoid receptor in ICR mouse vas deferens assessed as inhibition of electrically induced contractions at 3 x 10^-7 M after 10 mins relative to control; type: protein assay
[12] = Antioxidant activity assessed as trolox equivalent of APPH-induced radical scavenging activity by ORAC-FL assay; type: functional
[13] = target: T1, Cannabinoid receptor (Mus musculus); test: Agonist activity at cannabinoid receptor in ICR mouse vas deferens assessed as inhibition of electrically induced contractions at 1.82 x 10^-5 M after 10 mins relative to control; type: protein assay
[14] = target: T1, Cannabinoid receptor (Mus musculus); test: Agonist activity at cannabinoid receptor in ICR mouse vas deferens assessed as inhibition of electrically induced contractions at 2.7 x 10^-6 M after 10 mins in presence of CB2 antagonist AM630 relative to control; type: protein assay
[15] = target: T2, Cholinesterase; test: Inhibition of human serum BChE using butyrylthiocholine as substrate by Ellman's assay
[16] = target: T1, Cannabinoid receptor (Mus musculus); test: Agonist activity at cannabinoid receptor in ICR mouse vas deferens assessed as inhibition of electrically induced contractions at 9 x 10^-7 M after 10 mins relative to control; type: protein assay
[17] = target: T3, Acetylcholinesterase; test: Inhibition of human erythrocyte AChE at 10 uM using acetylthiocholine as substrate by Ellman's assay
[18] = target: T1, Cannabinoid receptor (Mus musculus); test: Agonist activity at cannabinoid receptor in ICR mouse vas deferens assessed as inhibition of electrically induced contractions at 10^-7 M after 10 mins in presence of CB1 antagonist AM251 relative to control; type: protein assay
[19] = test system: SH-SY5Y; test: Neuroprotective activity against amyloid beta-induced neurodegeneration in human SH-SY5Y cells at 20 uM preincubated for 1 hr followed by amyloid beta addition and measured after 24 hrs by MTT assay; type: functional, cell-based
[20] = target: T1, Cannabinoid receptor (Mus musculus); test: Agonist activity at cannabinoid receptor in ICR mouse vas deferens assessed as inhibition of electrically induced contractions at 3 x 10^-7 M after 10 mins in presence of CB2 antagonist AM630 relative to control; type: protein assay
[21] = species: Homo sapiens; test: Antiproliferative activity against Alzheimer's patient derived lymphoblast cells at 5 uM after 72 hrs by MTT assay; type: functional
[22] = species: Homo sapiens; test: Antiproliferative activity against Alzheimer's patient derived lymphoblast cells at 5 uM in presence of CB2 antagonist AM630 after 72 hrs by MTT assay; type: functional
[23] = test system: SH-SY5Y; test: Neuroprotective activity against amyloid beta-induced neurodegeneration in human SH-SY5Y cells at 20 uM preincubated for 1 hr followed by amyloid beta addition and measured after 24 hrs in presence of CB2 antagonist AM630 by MTT assay; type: functional, cell-based
[24] = target: T1, Cannabinoid receptor (Mus musculus); test: Agonist activity at cannabinoid receptor in ICR mouse vas deferens assessed as inhibition of electrically induced contractions at 9 x 10^-7 M after 10 mins in presence of CB1 antagonist AM251 relative to control; type: protein assay
[25] = target: T1, Cannabinoid receptor (Mus musculus); test: Agonist activity at cannabinoid receptor in ICR mouse vas deferens assessed as inhibition of electrically induced contractions at 10^-7 M after 10 mins in presence of CB2 antagonist AM630 relative to control; type: protein assay
[26] = Antiproliferative activity against normal human derived lymphoblast cells at 5 uM after 72 hrs by MTT assay
[27] = target: T1, Cannabinoid receptor (Mus musculus); test: Agonist activity at cannabinoid receptor in ICR mouse vas deferens assessed as inhibition of electrically induced contractions at 2.7 x 10^-6 M after 10 mins in presence of CB1 antagonist AM251 relative to control; type: protein assay
[28] = target: T1, Cannabinoid receptor (Mus musculus); test: Agonist activity at cannabinoid receptor in ICR mouse vas deferens assessed as inhibition of electrically induced contractions at 3 x 10^-7 M after 10 mins in presence of CB1 antagonist AM251 relative to control; type: protein assay
[29] = target: T1, Cannabinoid receptor (Mus musculus); test: Agonist activity at cannabinoid receptor in ICR mouse vas deferens assessed as inhibition of electrically induced contractions at 9 x 10^-7 M after 10 mins in presence of CB2 antagonist AM630 relative to control; type: protein assay
[30] = test system: SH-SY5Y; test: Toxicity in human SH-SY5Y cells at 20 uM after 24 hrs by MTT assay; type: cell-based
[31] = target: T2, Cholinesterase; test: Inhibition of human serum BChE at 10 uM using butyrylthiocholine as substrate by Ellman's assay

Sequence of Beta-secretase 1 (Homo sapiens) (P56817 whole entry): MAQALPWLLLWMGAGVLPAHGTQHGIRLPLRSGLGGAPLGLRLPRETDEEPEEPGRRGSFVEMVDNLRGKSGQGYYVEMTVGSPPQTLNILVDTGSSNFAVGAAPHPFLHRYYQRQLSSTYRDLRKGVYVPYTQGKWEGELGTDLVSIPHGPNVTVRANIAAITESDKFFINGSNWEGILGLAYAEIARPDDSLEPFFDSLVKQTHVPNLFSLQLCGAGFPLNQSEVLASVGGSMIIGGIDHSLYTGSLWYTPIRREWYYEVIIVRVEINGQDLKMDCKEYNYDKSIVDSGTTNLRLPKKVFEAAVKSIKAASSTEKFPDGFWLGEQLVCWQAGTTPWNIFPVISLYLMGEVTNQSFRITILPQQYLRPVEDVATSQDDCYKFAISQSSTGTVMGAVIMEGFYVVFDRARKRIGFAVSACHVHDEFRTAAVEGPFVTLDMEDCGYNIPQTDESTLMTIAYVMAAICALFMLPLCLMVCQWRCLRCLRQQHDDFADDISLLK
T2 sequence (P06276 whole entry): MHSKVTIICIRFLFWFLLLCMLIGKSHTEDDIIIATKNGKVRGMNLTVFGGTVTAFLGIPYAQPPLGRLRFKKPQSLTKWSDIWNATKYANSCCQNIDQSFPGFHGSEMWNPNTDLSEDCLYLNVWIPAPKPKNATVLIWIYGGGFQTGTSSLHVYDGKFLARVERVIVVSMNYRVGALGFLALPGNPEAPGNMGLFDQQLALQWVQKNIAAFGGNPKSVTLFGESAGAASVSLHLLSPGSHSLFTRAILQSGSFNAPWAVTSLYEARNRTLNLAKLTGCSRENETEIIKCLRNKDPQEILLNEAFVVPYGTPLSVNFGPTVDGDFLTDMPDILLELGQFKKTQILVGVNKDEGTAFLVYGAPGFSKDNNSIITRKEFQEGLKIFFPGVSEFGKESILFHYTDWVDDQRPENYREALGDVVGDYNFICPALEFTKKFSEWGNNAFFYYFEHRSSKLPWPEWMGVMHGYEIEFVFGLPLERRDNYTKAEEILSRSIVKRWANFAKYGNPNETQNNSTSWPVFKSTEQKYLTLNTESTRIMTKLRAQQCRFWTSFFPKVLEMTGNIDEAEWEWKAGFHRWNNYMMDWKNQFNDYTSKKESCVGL
T3 sequence (P22303 whole entry): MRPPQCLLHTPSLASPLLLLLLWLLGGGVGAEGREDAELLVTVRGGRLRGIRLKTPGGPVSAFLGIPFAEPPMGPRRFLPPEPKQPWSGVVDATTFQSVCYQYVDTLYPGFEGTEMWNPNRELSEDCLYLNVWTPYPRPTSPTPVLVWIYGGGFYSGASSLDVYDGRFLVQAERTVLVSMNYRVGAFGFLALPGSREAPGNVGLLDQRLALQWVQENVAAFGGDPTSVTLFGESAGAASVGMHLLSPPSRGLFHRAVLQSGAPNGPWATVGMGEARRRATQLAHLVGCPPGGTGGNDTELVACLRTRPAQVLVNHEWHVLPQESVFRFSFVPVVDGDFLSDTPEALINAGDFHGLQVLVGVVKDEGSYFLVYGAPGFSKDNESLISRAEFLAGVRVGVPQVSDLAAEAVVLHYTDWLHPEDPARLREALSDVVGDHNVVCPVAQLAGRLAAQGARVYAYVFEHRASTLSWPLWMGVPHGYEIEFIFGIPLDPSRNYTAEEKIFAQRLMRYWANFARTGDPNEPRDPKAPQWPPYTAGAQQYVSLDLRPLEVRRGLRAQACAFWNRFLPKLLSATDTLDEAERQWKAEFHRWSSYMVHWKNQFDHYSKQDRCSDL
T1 sequence (P47746 whole entry, looked up): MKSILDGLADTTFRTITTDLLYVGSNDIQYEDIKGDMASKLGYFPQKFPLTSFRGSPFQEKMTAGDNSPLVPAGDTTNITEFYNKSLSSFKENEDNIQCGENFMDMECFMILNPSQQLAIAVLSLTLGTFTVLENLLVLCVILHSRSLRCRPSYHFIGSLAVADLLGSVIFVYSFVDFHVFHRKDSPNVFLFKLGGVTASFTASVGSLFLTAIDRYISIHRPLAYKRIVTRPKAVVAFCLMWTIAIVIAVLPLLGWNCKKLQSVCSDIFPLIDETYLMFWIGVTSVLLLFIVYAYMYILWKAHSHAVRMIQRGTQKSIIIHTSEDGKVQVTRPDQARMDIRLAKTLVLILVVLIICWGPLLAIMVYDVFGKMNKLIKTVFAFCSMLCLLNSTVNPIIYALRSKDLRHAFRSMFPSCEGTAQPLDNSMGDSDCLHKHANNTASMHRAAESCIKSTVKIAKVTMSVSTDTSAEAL
T1 sequence (P47936 whole entry, looked up): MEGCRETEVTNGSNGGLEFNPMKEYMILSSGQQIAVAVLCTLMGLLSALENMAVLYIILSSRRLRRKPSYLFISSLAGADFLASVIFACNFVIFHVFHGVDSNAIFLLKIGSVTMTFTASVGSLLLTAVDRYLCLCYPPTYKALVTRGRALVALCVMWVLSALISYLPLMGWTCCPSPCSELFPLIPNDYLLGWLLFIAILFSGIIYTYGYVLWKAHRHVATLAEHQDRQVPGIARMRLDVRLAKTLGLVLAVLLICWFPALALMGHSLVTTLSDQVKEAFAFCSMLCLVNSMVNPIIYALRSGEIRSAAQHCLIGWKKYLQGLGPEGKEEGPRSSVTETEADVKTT

SMILES | inhibition [1] | inhibition [2] | IC50 [4] | inhibition [5] | inhibition [6] | inhibition [7] | inhibition [8] | inhibition [9] | inhibition [10] | inhibition [11] | Activity [12] | inhibition [13] | inhibition [14] | IC50 [15] | inhibition [16] | inhibition [18] | inhibition [20] | inhibition [24] | inhibition [25] | inhibition [27] | other results
O=C(c1ccc2ccccc2c1)n1nc(OCCCN2CCCCC2)c2ccccc21 | 20.9% | 17.2% | > 10 µM | 49.1% | 1.2% | -2.1% | 49.5% | 0.7% | 38% | -1% | inactive | 41.9% | -9.7% | 2100 nM | 0.1% | – | – | – | – | – | inhibition [3]: Active; inhibition [17]: 33%
O=C(c1cccc(Cl)c1Cl)n1nc(OCCN2CCCC2)c2ccccc21 | 30.4% | 56.3% | > 10 µM | 52.9% | 27.8% | 1.6% | 80.4% | 44.8% | 32.6% | 5.6% | 0.41 equiv | 80.8% | 14.2% | 230 nM | 17.3% | -0.3% | 3.4% | 7.1% | 0% | 13% | Activity [19]: Active; Activity [21]: Active; Activity [22]: inactive; Activity [23]: inactive; Activity [26]: Non-Toxic; inhibition [28]: 3.4%; inhibition [29]: 7.9%
O=C(c1ccccc1OCc1ccccc1)n1nc(OCCCN2CCCCC2)c2ccccc21 | 29.7% | 74.4% | > 10 µM | 77.5% | 31.4% | – | 74.8% | 26.4% | 38.4% | – | inactive | 94.7% | -3% | 2.5 nM | 6.4% | -6.8% | 1.1% | -4.5% | -3.1% | -1% | Activity [21]: Active; Activity [22]: inactive; Activity [26]: Non-Toxic; inhibition [28]: -6.8%; inhibition [29]: -0.5%; Activity [30]: Toxic; inhibition [17]: 31%
O=C(c1ccccc1Cl)n1nc(OCCN2CCCC2)c2ccccc21 | 15.8% | 45.9% | 9.7 µM | 29.3% | 15.1% | 1.5% | 21.1% | -2.6% | 9% | 4.9% | inactive | 75.4% | 8.8% | 1300 nM | 10.8% | -2.8% | 0.3% | -1.2% | -2.5% | -2.2% | Activity [19]: Active; Activity [21]: Active; Activity [22]: inactive; Activity [23]: inactive; Activity [26]: Non-Toxic; inhibition [28]: -2.8%; inhibition [29]: 3.5%
O=C(c1cccc(Cl)c1F)n1nc(OCCCN2CCCCC2)c2ccccc21 | 12.9% | 54.7% | > 10 µM | 58.3% | 24.9% | 9.6% | 76.1% | 54.9% | 34% | 13.9% | inactive | 80.5% | -2.8% | 800 nM | 18.7% | -7.1% | 1.7% | 4.3% | -1.5% | 12.9% | Activity [21]: Active; Activity [22]: inactive; Activity [26]: Non-Toxic; inhibition [28]: -5.3%; inhibition [29]: -3.8%; Activity [30]: Toxic; inhibition [17]: 48%
O=C(Cc1ccc(Cl)cc1)n1nc(OCCCN2CCCCC2)c2ccccc21 | 86.6% | 67.4% | > 10 µM | 96.1% | 7.3% | -4.5% | 83.5% | 61.8% | 50% | -4.8% | inactive | 94.2% | 19.7% | > 10000 nM | 0.4% | -5.5% | -3.2% | -2.2% | -7.8% | 12.4% | inhibition [31]: 46%; inhibition [28]: -6.2%; inhibition [29]: 2.4%; inhibition [17]: 43%
O=C(c1cccc(Cl)c1Cl)n1nc(OCCCN2CCCCC2)c2ccccc21 | 62.7% | 89.3% | 17 µM | 85.5% | 27.4% | 1.4% | 89.8% | 65.3% | 45.1% | 6.2% | inactive | 96.6% | 18.2% | 80 nM | 14.3% | -0.7% | 0% | 8.7% | -3% | 15.2% | Activity [21]: Active; Activity [22]: inactive; Activity [26]: Non-Toxic; inhibition [28]: 2%; inhibition [29]: 10.4%; Activity [30]: Toxic
O=C(c1ccc2ccccc2c1)n1nc(OCCN2CCCCC2)c2ccccc21 | – | 4% | > 10 µM | – | -2.8% | 0.3% | – | – | 50% | -1.2% | inactive | 18.2% | – | 4000 nM | -3.5% | – | – | – | – | – | inhibition [3]: Active; inhibition [17]: 43%
CCCC(C)(C)c1ccc2c(c1)OC(C)(C)[C@@H]1CC=C(C)C[C@@H]21 | – | – | – | – | – | – | – | – | – | – | – | – | – | – | – | – | – | – | – | – | Activity [21]: Active; Activity [26]: Non-Toxic
O=C(c1cccc2ccccc12)n1nc(OCCCN2CCCCC2)c2ccccc21 | 41% | 31.5% | > 10 µM | 56.7% | 16% | 1% | 18.4% | 2.7% | 42% | 3% | inactive | 55.9% | 14.2% | 0.07 nM | 7.9% | -6.4% | -5.4% | -3.7% | -8.2% | -2.4% | inhibition [28]: -5%; inhibition [29]: 0.1%; inhibition [17]: 43%
